Data from PubChem BioAssay (NCI).
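Results reflect a 48-hour exposure of cells in 96-well plates to compound at five concentrations. TGI denotes the concentration required for complete inhibition of growth.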

Legend:
Assay in all cases: NCI-60 cell line screen, 48 h
SNB-78 CNS = test system: SNB-78 CNS
CAKI-1 renal = test system: CAKI-1 renal
DMS 114 small cell lung = test system: DMS 114 small cell lung
DLD-1 colon = test system: DLD-1 colon
XF 498 CNS = test system: XF 498 CNS
UO-31 renal = test system: UO-31 renal
SNB-19 CNS = test system: SNB-19 CNS
DMS 273 small cell lung = test system: DMS 273 small cell lung
M19-MEL melanoma = test system: M19-MEL melanoma
OVCAR-5 ovarian = test system: OVCAR-5 ovarian
KM20L2 colon = test system: KM20L2 colon
HL-60(TB) leukemia = test system: HL-60(TB) leukemia
HOP-18 NSCLC = test system: HOP-18 NSCLC
LXFL 529 NSCLC = test system: LXFL 529 NSCLC
RXF-631 renal = test system: RXF-631 renal
MDA-MB-231 breast = test system: MDA-MB-231 breast
MDA-MB-435 = test system: MDA-MB-435
MDA-N = test system: MDA-N

SMILES	TGI (SNB-78 CNS) [µM]	TGI (CAKI-1 renal) [µM]	TGI (DMS 114 small cell lung) [µM]	TGI (DLD-1 colon) [µM]	TGI (XF 498 CNS) [µM]	TGI (UO-31 renal) [µM]	TGI (SNB-19 CNS) [µM]	TGI (DMS 273 small cell lung) [µM]	TGI (M19-MEL melanoma) [µM]	TGI (OVCAR-5 ovarian) [µM]	TGI (KM20L2 colon) [µM]	TGI (HL-60(TB) leukemia) [µM]	TGI (HOP-18 NSCLC) [µM]	TGI (LXFL 529 NSCLC) [µM]	TGI (RXF-631 renal) [µM]	TGI (MDA-MB-231 breast) [µM]	TGI (MDA-MB-435) [µM]	TGI (MDA-N) [µM]
O=C(O)CCc1cccc2c1oc1c(CCC(=O)O)cccc12	> 100	> 100	> 100	> 100	> 100	> 100	> 100	> 100	> 100	> 100	> 100	> 100	> 100	> 100				
CC(C)C(Sc1nc(-c2ccccc2)c(-c2ccccc2)[nH]1)C(=O)NN (stereo unspecified)	> 100	> 100	> 100	> 100	> 100	> 100	> 100	> 100	> 100	> 100	> 100	> 100		> 100				
COc1cc2c(cc1OC)[C@H]1C(COC(=O)c3ccccc3)CSC(=Nc3ccccc3)N1CC2 (stereo partly specified)	> 100	> 100	> 100	> 100	> 100	> 100	> 100	> 100	> 100	> 100	> 100	> 100	> 100	> 100				
CCOC(=O)/C(=C\c1cccs1)P(=O)(OCC)OCC	> 100	35.4	51.7	60.6		36.1	> 100	> 100	45	45.8	49.7	73.3	> 100	41.4	> 100			
Nc1nc2n[nH]nc2c(=O)[nH]1	> 100	> 100	54.7	> 100		29.3	> 100	18.2		> 88.4	> 100	16.5	85.3	> 100		> 100	29	15.4
CN(C)CC1CCCC(CN(C)C)C1=NOC(=O)c1ccccc1 (stereo unspecified)	> 100		> 100	> 100	> 100	> 100	> 100	> 100	> 100	> 100	> 100	> 100	> 100	> 100				
COc1ccc(N2C(=O)C3c4[nH]c5ccccc5c4C4CC(C)CC(C)C4C3C2=O)cc1 (stereo unspecified)	> 100		> 100	> 100	> 100	> 100	> 100	> 100	> 100		> 100	> 100	> 100	> 100				
CC(O)c1ccc[n+](Cc2ccccc2)c1 (stereo unspecified)		> 400	> 400	> 400	> 400		> 400	> 400	> 400	> 400	> 400	> 400	> 400	> 400	> 400			
CC1=NN(C(=O)CC(=O)Nc2ccc(C)cc2)C(=O)C1N=Nc1ccc(S(=O)(=O)c2ccc(N=NC3C(=O)N(C(=O)CC(=O)Nc4ccc(C)cc4)N=C3C)cc2)cc1 (stereo unspecified)		> 100				> 100	> 100			> 100		> 100				> 100	> 100	> 100
CCN(C(C)=O)c1cnc(/C=N/NC(N)=S)c2ccccc12		> 51.9				7.85	> 100			> 100		> 28.5				> 100	> 100	> 100
O=C1CCCC1C(O)(C(F)(F)F)C(F)(F)F (stereo unspecified)		> 100				> 100	> 100			> 100		> 100				> 100	> 100	> 100
CCOc1cc2c(cc1O)CC[C@@H]1[C@@H]2CC[C@]2(C)C(N)CC[C@@H]12 (stereo partly specified)		22.7				16.2	28.2			36.9		> 25.1				5.56	3.96	3.6
O=C(NNCc1ccco1)c1cc2ccccc2[nH]1		> 100				> 100	> 100			> 100		96.9				> 100	> 100	> 100
S=C1CSc2c(ccc3ccccc23)N1		> 100				> 100	> 100			> 100		> 100				> 100	> 100	> 100
CCOC(=O)[C@@H]1CCN2CN(c3ccc(OC)cc3)N=C(c3ccccc3)[C@@]12c1ccccc1		> 100				77.2	> 100			> 100		> 100				> 100	> 100	> 100
COC(=O)C(Cc1ccc(Oc2cc(CC(NC(=O)c3ccccc3)C(=O)OC)ccc2OC)cc1)NC(=O)c1ccccc1 (stereo unspecified)		> 100				24.2	> 100			> 100		> 57.3				> 78.8	> 63.5	34
O=P1(c2ccccc2)C(c2ccccc2)=CC=C1c1ccccc1		> 100				> 100	> 100			> 100		9.31				> 100	36.4	62.1
CC1(c2cccc(Cl)c2)CC(c2cccc(Cl)c2)=C(C#N)C(=C(C#N)C#N)N1 (stereo unspecified)		32.3				29.3	39.9			46.4		46.2				48.6	35.3	39.7
CCN(CC)c1c(-c2c(N(CC)CC)c(OC(C)=O)c3sccn3c2=O)c(=O)n2ccsc2c1OC(C)=O		> 100				> 100	> 100			> 100		> 100				57	> 100	> 100
Nc1ncnc2c1ncn2C1OC(CO)C(O)C(O)C1O (stereo unspecified)		> 100				> 100	> 100			> 100		> 100				> 100	> 100	> 100
C=CC[C@@]1([C@H](C=C)COCc2ccc(OC)cc2)CC[C@]2(C)OC(C)(C)[C@@H](c3ccccc3)N2C1=S		> 100				> 100	> 100			> 100		> 100				> 100	> 100	> 100
N#Cc1ccc(C(=O)/C=C/c2ccc(O)c(O)c2)cc1		29.6				25.1	29.3			33.5		19.8				30.7	28.5	30.7
NC(CCC(=O)NC(CSC(=O)N(O)c1ccccc1)C(=O)NCC(=O)O)C(=O)O (stereo unspecified)	> 1000	> 1000	> 1000	> 1000		> 1000	> 1000	> 1000	> 1000	> 1000	> 1000	> 1000		> 1000				
CC(C)(C)OC(=O)N1CCC2(C)CC(=O)CC=C12 (stereo unspecified)		> 100				> 100	> 100			> 100		> 100				> 100	> 100	> 100
COc1ccc2c(c1)Oc1cc(O)ccc1[C@@H]2c1ccccc1C(=O)NC(C)c1ccccc1 (stereo partly specified)	32.6	42.2	32.3	39.4		34.1	32.7	28.2	32.2	30.5	31.4	34.5		30.1				
CC(C)(C)c1ccc(-n2c3nc(=O)n(-c4ccccc4CO)c(=O)c-3cc3ccccc32)cc1		> 100				> 100	> 100			> 100		56.1				> 100	99.4	62.9
Cc1cc2nc(N3C(=O)/C(=C/c4ccccc4S)N=C3c3ccccc3)sc2cc1C		> 100				> 100	> 100			> 100		82				86	95.9	39.1
c1ccc2c(c1)cc1c3[nH]c4ccccc4c3ccn21		> 10				> 10	> 10			> 10		> 10				> 10	> 10	> 10
